Three compounds from patent publication US7015221B2, “2,4-disubstituted triazine derivatives” (Janssen Pharmaceutica, N.V., priority 1998, dated 2006) can be followed below.

For orientation: CC50 means the concentration giving 50% cytotoxicity. Lower therefore signals greater toxicity to the cells. By melting point is commonly meant the temperature of the solid-liquid transition.

A short description of data set [1]: Cytotoxicity in mock-infected MT-4 cells (MTT). The class given is cell-based. The note with it: human, concentration reducing absorbance of mock-infected MT-4 control by 50%.

Consider `Cc1cc(C)c(Oc2ncnc(Nc3ccc(C#N)cc3)n2)c(C)c1` [Compound 2, 4-[[4-(2,4,6-trimethylphenoxy)-1,3,5-triazin-2-yl]amino]benzonitrile], for which the CC50 in data set [1] was above 100 µM. In the case of `Cc1cc(C)c(Sc2ncnc(Nc3ccc(C#N)cc3)n2)c(C)c1` [Compound 4, 4-[[4-[(2,4,6-trimethylphenyl)thio]-1,3,5-triazin-2-yl]amino]benzonitrile], the CC50 in data set [1] is above 100 µM.

Regarding `CC(C)c1cc(Br)c(Nc2ncnc(Nc3ccc(C#N)cc3)n2)c(Br)c1` [Compound 8, 4-[[4-[[2,6-dibromo-4-(1-methylethyl)phenyl]amino]-1,3,5-triazin-2-yl]amino]benzonitrile], the melting point fell in the range of 245 to 247 °C.
